Assay results: US20120277239A1, “Compositions and Methods for Improving Night Vision” (ALPHA SYNERGY DEVELOPMENT INC., priority 2011, published 2012)
Structures can show the parent of a compound that is named as a salt. Where two headings read alike, the source gives them in different places. Blank lines part the entries; values can stand above or below the compound they belong to.

Experiments:
[1] = cited from earlier work; for floppy iris syndrome: systemic or topical α1-adrenoceptor antagonist (Oshika et al); for side effects upon application: in vivo
pupil size in dim light = settings: cited from earlier work
eye redness = settings: brimonidine […]; for Redness (from 0 to 4) (right eye): pH 7.0 to right eye
Excerpt: (§1) All pupil measurements were made using Marco video monitor pupillometry in a darkened room, which was captured via digital image capture and monitor adjustable caliper measurement. Once the dark adapted pupil was digitially captured, the instrument allows superiposition of a caliper with 0.1 mm increments to measure the pupil diameter.

scotopic pupil = settings: brimonidine […]; for % reduction of scotopic pupil size (left eye) / Scotopic pupil size (mm) (left eye): contralateral control left eye, pH 7.0 to right eye; for % reduction of scotopic pupil size (right eye) / Scotopic pupil size (mm) (right eye): treated right eye, pH 7.0
Excerpt: as §1

pupil size = settings: for Onset of pupil reduction / Pupil reduction at 1 hour (mm) / Range (pupil size) at 3 hours: brimonidine […], pH 7.0 q am
Experimental: The pupil size was measured at the baseline and then 10 minutes and 3 hours after instillation for 3 consecutive weeks.

surface vasoconstriction = settings: brimonidine 0.01% to 0.05% weight by volume, particularly 0.01% to […]
[2] = pH 7.1; with added constituents of a balanced salt solution
Excerpt: The terms “salt” and “constituent of a balanced salt solution” are used interchangeably for the purposes of the present invention. They are a subset of agents that improve solubility of the inventive formulations.

pupil = settings: bunazosin at 0.3%; cited from earlier work
intraocular pressure = settings: bunazosin at 0.3%; measured 6 hours post instillation; cited from earlier work
conjunctival hyperemia = settings: bunazosin at 0.3%; cited from earlier work
[3] = Day 2.1 (follows 20 days of consecutive use)

Compound: C[C@H](Cc1cc2c(c(C(N)=O)c1)N(CCCO)CC2)NCCOc1ccccc1OCC(F)(F)F [sidolosin]
floppy iris syndrome [1]: floppy iris syndrome

Compound: CC[C@@H]1C(=O)OC[C@@H]1Cc1cncn1C [pilocarpine]
duration of effect (pupil size in dim light; in vivo): lasts only a few hours | pupil in dim light (pupil size in dim light; when first applied): below 3 mm | side effects upon application [1]: brow ache, ciliary muscle contraction and pseudo myopia (muscle spasm of accommodation), and redness

Compound: Brc1c(NC2=NCCN2)ccc2nccnc12.O=C(O)C(O)C(O)C(=O)O [brimonidine, 5-bromo-6-(2-imidazolin-2-ylamino)quinoxaline D-tartrate]
eye whitening in the right eye (eye redness; pH 7.0, at 0.5 hr, 1.25 hr, 2.25 hr and 3.25 hr): significant eye whitening | Redness (from 0 to 4) (right eye) (eye redness; time 0 hr (baseline)): 2 | Redness (from 0 to 4) (right eye) (eye redness; time 0.05 hr): 0 | Redness (from 0 to 4) (right eye) (eye redness; time 0.5 hr): 0 | Redness (from 0 to 4) (right eye) (eye redness; time 1.25 hr): 0 | Redness (from 0 to 4) (right eye) (eye redness; time 2.25 hr): 0 | Redness (from 0 to 4) (right eye) (eye redness; time 3.25 hr): 0 | pupil modulation in contralateral control (left eye) (scotopic pupil; pH 7.0 applied to right eye): delayed but significant pupil modulation | % reduction of scotopic pupil size (left eye) (scotopic pupil; time 0 hr (baseline)): 0% | Scotopic pupil size (mm) (left eye) (scotopic pupil; time 0 hr (baseline)): 5 mm | % reduction of scotopic pupil size (left eye) (scotopic pupil; time 0.05 hr): 0% | Scotopic pupil size (mm) (left eye) (scotopic pupil; time 0.05 hr): 5 mm | % reduction of scotopic pupil size (left eye) (scotopic pupil; time 0.5 hr): 0% | Scotopic pupil size (mm) (left eye) (scotopic pupil; time 0.5 hr): 5 mm | % reduction of scotopic pupil size (left eye) (scotopic pupil; time 1.25 hr): 0% | Scotopic pupil size (mm) (left eye) (scotopic pupil; time 1.25 hr): 5 mm | % reduction of scotopic pupil size (left eye) (scotopic pupil; time 2.25 hr): 20% | Scotopic pupil size (mm) (left eye) (scotopic pupil; time 2.25 hr): 4 mm | % reduction of scotopic pupil size (left eye) (scotopic pupil; time 3.25 hr): 20% | Scotopic pupil size (mm) (left eye) (scotopic pupil; time 3.25 hr): 4 mm | % reduction of scotopic pupil size (right eye) (scotopic pupil; time 0 hr (baseline)): 0% | Scotopic pupil size (mm) (right eye) (scotopic pupil; time 0 hr (baseline)): 5 mm | % reduction of scotopic pupil size (right eye) (scotopic pupil; time 0.05 hr): 0% | Scotopic pupil size (mm) (right eye) (scotopic pupil; time 0.05 hr): 5 mm | % reduction of scotopic pupil size (right eye) (scotopic pupil; time 0.5 hr): 10% | Scotopic pupil size (mm) (right eye) (scotopic pupil; time 0.5 hr): 4.5 mm | % reduction of scotopic pupil size (right eye) (scotopic pupil; time 1.25 hr): 20% | Scotopic pupil size (mm) (right eye) (scotopic pupil; time 1.25 hr): 4 mm | % reduction of scotopic pupil size (right eye) (scotopic pupil; time 2.25 hr): 30% | Scotopic pupil size (mm) (right eye) (scotopic pupil; time 2.25 hr): 3.5 mm | % reduction of scotopic pupil size (right eye) (scotopic pupil; time 3.25 hr): 30% | Scotopic pupil size (mm) (right eye) (scotopic pupil; time 3.25 hr): 3.5 mm | Baseline pupil size (pupil size; baseline before instillation, dark conditions): 6.2 mm | Onset of pupil reduction (pupil size; one eye, Day 1-20 Avg): 10 to 15 min | Pupil reduction at 1 hour (mm) (pupil size; Day 1-20 Avg): ≥ 1 mm | Range (pupil size) at 3 hours (pupil size; Day 1-20 Avg): 3.8-4.2 | Onset of pupil reduction (pupil size; [3]): 10 to 15 min | Pupil reduction at 1 hour (mm) (pupil size; [3]): ≥ 1 mm | Range (pupil size) at 3 hours (pupil size; [3]): 3.8-4.2 | pupil effect in one individual (pupil dilation; brimonidine […], pH 6.5, one individual who later responded at pH 7.1): no pupil effect | treated patients with pupil modulation (pupil dilation; brimonidine […], pH 7.1, one eye, 4 individuals): 100% | individuals who experienced reduced dilation (pupil dilation; topical brimonidine […], pH 6.5, one eye, 13 individuals, modest indoor lighting): 2 individuals | treated patients with reduced dilation (pupil dilation; topical brimonidine […], pH 6.5, 13 individuals): 15.4% | individuals with pupil modulation (pupil dilation; topical brimonidine […], pH 7.1): 4 out of 4 | surface vasoconstriction, redness and whiteness versus equivalent concentration of oxymetazoline (surface vasoconstriction): improved surface vasoconstriction, reduced surface redness, and improved whiter appearance

Compound: CCOc1ccccc1OCCN[C@H](C)Cc1ccc(OC)c(S(N)(=O)=O)c1 [tamsulosin]
floppy iris syndrome [1]: floppy iris syndrome

solubility [2]: ≥ 0.1%
Compound: Cc1cccc([C@H](C)c2cnc[nH]2)c1C [dexmedetomidine]

Compound: CCCC(=O)N1CCCN(c2nc(N)c3cc(OC)c(OC)cc3n2)CC1 [Bunazosin]
pupil reduction (pupil): about 1.0 mm | intraocular pressure reduction (intraocular pressure): about 20% | duration before return to baseline (conjunctival hyperemia): about 24 hours | mean conjunctival hyperemia score (conjunctival hyperemia): 1.5 /4

Compound: Cc1ccccc1N1CCN(CCc2nnc3n2CCCC3)CC1 [dapiprazole, 5,6,7,8-tetrahydro-3-[2-(4-o,tolyl-1-piperazinypethyl]-8-triazolo[4,3-a]pyridine hydrochloride]
effect on pupil size in dim light (pupil size in dim light; clinical application): very little effect on pupil size in dim light | side effects upon application [1]: redness and frequently chemosis
